Experimental data as given in patent US20220363665A1, “QUINOLINE COMPOUNDS FOR THE TREATMENT OF AUTOIMMUNE DISEASE” (Hoffmann-La Roche Inc., priority 2019, published 2022).
≈ marks a conversion by molar mass, not a printed value.

Legend:
LYSA solubility assay = assay type: physicochemical; conditions: 0.05 M phosphate buffer, pH 6.5, aqueous buffer, thermodynamic from solid
Protocol: LYSA study is used to determine the aqueous solubility of tested compounds. Samples are prepared in duplicate from 10 mM DMSO stock solution. After evaporation of DMSO with a centrifugal vacuum evaporator, compounds are dissolved in a 0.05 M phosphate buffer (pH 6.5), stirred for one hr and shaken for two hrs. After one night, the solutions are filtered using a microtiter filter plate. Then the filtrate and its 1/10 dilution are analyzed by HPLC-UV. In addition, a four-point calibration curve is prepared from the 10 mM stock solutions and used for the solubility determination of the compounds. The results are in μg/mL. In case the percentage of sample measured in solution after evaporation divided by the calculated maximum of sample amount is bigger than 80%, the solubility is reported as bigger than this value.

human TLR8 = target: T1, human TLR8 (Homo sapiens, UniProt Q9NR97); experiment: HEK293-Blue-hTLR-8 cells assay (SEAP reporter, R848 stimulation); assay type: cell-based; conditions: HEK293-Blue-hTLR8 cells, R848, 20 hrs
T1 construct: host or cells: HEK293 (HEK-Blue hTLR8)
T1 sequence (Q9NR97 27-1041): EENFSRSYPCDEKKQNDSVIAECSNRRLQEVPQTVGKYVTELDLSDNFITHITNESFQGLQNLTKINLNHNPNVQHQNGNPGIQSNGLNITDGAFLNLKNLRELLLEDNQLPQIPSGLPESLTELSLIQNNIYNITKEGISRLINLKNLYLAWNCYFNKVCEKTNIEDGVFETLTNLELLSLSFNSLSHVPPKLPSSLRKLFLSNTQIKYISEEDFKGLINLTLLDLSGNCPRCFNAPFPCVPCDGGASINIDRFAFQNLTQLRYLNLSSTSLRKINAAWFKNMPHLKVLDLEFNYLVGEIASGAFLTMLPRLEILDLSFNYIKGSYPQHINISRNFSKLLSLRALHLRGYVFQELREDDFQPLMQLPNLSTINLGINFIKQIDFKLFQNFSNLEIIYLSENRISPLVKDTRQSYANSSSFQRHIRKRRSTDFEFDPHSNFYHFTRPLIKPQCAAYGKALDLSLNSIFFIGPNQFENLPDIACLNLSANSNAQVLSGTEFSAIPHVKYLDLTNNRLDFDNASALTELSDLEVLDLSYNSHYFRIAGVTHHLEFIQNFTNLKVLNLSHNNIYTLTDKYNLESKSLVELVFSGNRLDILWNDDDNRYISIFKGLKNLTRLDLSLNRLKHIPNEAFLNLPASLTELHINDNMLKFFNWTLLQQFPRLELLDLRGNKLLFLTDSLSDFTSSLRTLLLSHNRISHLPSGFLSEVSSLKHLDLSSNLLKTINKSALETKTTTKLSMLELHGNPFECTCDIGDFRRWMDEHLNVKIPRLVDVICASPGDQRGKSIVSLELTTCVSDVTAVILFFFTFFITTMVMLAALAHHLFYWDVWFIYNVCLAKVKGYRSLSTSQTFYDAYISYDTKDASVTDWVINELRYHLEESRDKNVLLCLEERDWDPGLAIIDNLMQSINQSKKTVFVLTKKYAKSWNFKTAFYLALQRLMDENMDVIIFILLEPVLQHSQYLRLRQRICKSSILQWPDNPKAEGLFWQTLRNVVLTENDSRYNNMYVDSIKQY
Protocol: The following tests were carried out in order to determine the activity of the compounds of formula (I) in HEK293-Blue-hTLR-7/8/9 cells assay.
HEK293-Blue-hTLR-8 Cells Assay:
A stable HEK293-Blue-hTLR-8 cell line was purchased from InvivoGen (Cat. #: hkb-htlr8, San Diego, Calif., USA). These cells were originally designed for studying the stimulation of human TLR8 by monitoring the activation of NF-κB. A SEAP (secreted embryonic alkaline phosphatase) reporter gene was placed under the control of the IFN-β minimal promoter fused to five NF-κB and AP-1-binding sites. The SEAP was induced by activating NF-κB and AP-1 via stimulating HEK-Blue hTLR8 cells with TLR8 ligands. Therefore the reporter expression was declined by TLR8 antagonist under the stimulation of a ligand, such as R848, for incubation of 20 hrs. The cell culture supernatant SEAP reporter activity was determined using QUANTI-Blue™ kit (Cat #. rep-qbl, Invivogen, San Diego, Calif., USA) at a wavelength of 640 nm, a detection medium that turns purple or blue in the presence of alkaline phosphatase.
HEK293-Blue-hTLR8 cells were incubated at a density of 250,000˜450,000 cells/mL in a volume of 170 μL in a 96-well plate in Dulbecco's Modified Eagle's medium (DMEM) containing 4.5 g/L glucose, 50 U/mL penicillin, […], […], 2 mM L-glutamine, 10% (v/v) heat-inactivated fetal bovine serum with addition of 20 μL test compound in a serial dilution in the presence of final DMSO at 1% and 10 μL of 60 μM R848 in above DMEM, perform incubation under 37° C. in a CO2 incubator for 20 hrs. Then 20 μL of the supernatant from each well was incubated with 180 μL Quanti-blue substrate solution at 37° C. for 2 hrs and the absorbance was read at 620˜655 nm using a spectrophotometer. The signalling pathway that TLR8 activation leads to downstream NF-KB activation has been widely accepted, and therefore similar reporter assay was modified for evaluating TLR8 antagonist.

Row | Structure (SMILES) | solubility thermodynamic (LYSA solubility assay) [µg/mL] | IC50 (human TLR8) [nM]
1 | Cc1ccc(N2C[C@@H](C)O[C@@H](C(=O)NC3CCN(C)CC3)C2)c2cccnc12 [Example 16, (2R,6R)-6-methyl-N-(1-methyl-4-piperidyl)-4-(8-methyl-5-quinolyl)morpholine-2-carboxamide] | > 450 | 8
2 | Cc1ccc(N2C[C@@H](C)O[C@@H](C(=O)NCC3CN(C)CCO3)C2)c2cccnc12 (stereo partly drawn) [Example 17, (2R,6R)-6-methyl-N-[(4-methylmorpholin-2-yl)methyl]-4-(8-methyl-5-quinolyl)morpholine-2-carboxamide] | > 485 | 25
3 | C[C@@H]1CN(c2ccc([N+](=O)[O-])c3ncccc23)C[C@H](C(=O)NCC2CN(C)CCO2)O1 (stereo partly drawn) [Example 18, (2R,6R)-6-methyl-N-[(4-methylmorpholin-2-yl)methyl]-4-(8-nitro-5-quinolyl)morpholine-2-carboxamide] | > 530 | < 3
4 | C[C@@H]1CN(c2ccc([N+](=O)[O-])c3ncccc23)C[C@H](C(=O)N[C@@H]2CNC[C@@H]2F)O1 [Example 19, cis-(2R,6R)-N-[41-fluoropyrrolidin-3-yl]-6-methyl-4-(8-nitro-5-quinolyl)morpholine-2-carboxamide] | > 510 | < 3
5 | C[C@@H]1CN(c2ccc([N+](=O)[O-])c3ncccc23)C[C@H](C(=O)NC2CCN(C)CC2)O1 [Example 20, (2R,6R)-6-methyl-N-(1-methyl-4-piperidyl)-4-(8-nitro-5-quinolyl)morpholine-2-carboxamide] | > 515 | < 3
6 | Cc1ccc(N2C[C@@H](C)O[C@@H](C(=O)N[C@@H]3CNC[C@@H]3F)C2)c2cccnc12 [Example 21, cis-(2R,6R)-N-14-fluoropyrrolidin-3-yl1-6-methyl-4-(8-methyl-5-quinolyl)morpholine-2carboxamide] | > 435 | 9
7 | C[C@@H]1CN(c2ccc(Cl)c3ncccc23)C[C@H](C(=O)N[C@H]2CNC[C@H]2F)O1 [Example 22, (2R,6R)-4-(8-chloro-5-quinolyl)-N-[(3S,4R)-4-fluoropyrrolidin-3-yl]-6-methyl-morpholine-2-carboxamide] | > 455 | 19
8 | C[C@H]1C[C@@H](N)CN(c2ccc(Cl)c3ncccc23)C1 [Example 23, (3R,5S)-1-(8-chloro-5-quinolyl)-5-methyl-piperidin-3-amine] | > 315 | 4
9 | C[C@@H]1CN(c2ccc(Cl)c3ncccc23)C[C@H](C(=O)NC2CCN(C)CC2)O1 [Example 24, (2R,6R)-4-(8-chloro-5-quinolyI)-6-methyl-N-(1-methyl-4-piperidyl)morpholine-2-carboxamide] | > 475 | < 3
10 | C[C@@H]1CN(c2ccc(Cl)c3ncccc23)C[C@H](C(=O)NC2CCCNCC2)O1 (stereo partly drawn) [Example 25, (2R,6R)-N-(azepan-4-yl)-4-(8-chloro-5-quinolyl)-6-methyl-morpholine-2-carboxamide] | > 470 | < 3
11 | C[C@@H]1CN(c2ccc(Cl)c3ncccc23)C[C@H](C(=O)NCC2CN(C)CCO2)O1 (stereo partly drawn) [Example 26, (2R,6R)-4-(8-chloro-5-quinolyl)-6-methyl-N-[(4-methylmorpholin-2-yl)methyl]morpholine-2-carboxamide] | > 520 | < 3
12 | C[C@@H]1CN(c2ccc(C(F)(F)F)c3ncccc23)C[C@H](C(=O)N2CCC3(CCNCC3)CC2)O1 [Example 32, 3,9-diazaspiro[5.5]undecan-3-yl-[(2R,6R)-6-methyl-4-[8-(trifluoromethyl)-5-quinolyl]morpholin-2-yl]methanone] | > 640 | 20
13 | C[C@@H]1CN(c2ccc(C(F)(F)F)c3ncccc23)C[C@H](C(=O)NC2CC3COCC(C2)N3)O1 (stereo partly drawn) [Example 33, (2R,6R)-6-methyl-N-(3-oxa-9-azabicyclo[3.3.1]nonan-7-yl)-4-[8-(trifluoromethyl)-5-quinolyl]morpholine-2-carboxamide] | 350 (≈ 754 µM) | < 3

More lines, now with the values ahead:

Row | solubility thermodynamic (LYSA solubility assay) [µg/mL] | IC50 (human TLR8) [nM] | Structure (SMILES)
14 | > 665 | 5 | C[C@@H]1CN(c2ccc(C(F)(F)F)c3ncccc23)C[C@H](C(=O)N2CCC(N)CC2)O1 [Example 12, (4-amino-1-piperidyl)-[(2R,6R)-6-methyl-4-[8-(trifluoromethyl)-5-quinolyl]morpholin-2-yl]methanone]
15 | > 725 | 52 | C[C@@H]1CN(c2ccc(C(F)(F)F)c3ncccc23)C[C@H](C(=O)NCCN2CCOCC2)O1 [Example 13, (2R,6R)-6-methyl-N-(2-morpholinoethyl)-4-[8-(trifluoromethyl)-5-quinolyl]morpholine-2-carboxamide]
16 | > 695 | 7 | C[C@@H]1CN(c2ccc(C(F)(F)F)c3ncccc23)C[C@H](C(=O)NC2CNCCOC2)O1 (stereo partly drawn) [Example 14, (2R,6R)-6-methyl-N-(1,4-oxazepan-6-yl)-4-[8-(trifluoromethyl)-5-quinolyl]morpholine-2-carboxamide]
17 | > 585 | 21 | C[C@@H]1CN(c2ccc(C(F)(F)F)c3ncccc23)C[C@H](C(=O)NC[C@@H]2C[C@@H](F)CN2)O1 [Example 27, (2R,6R)-N-[[(2S,4R)-4-fluoropyrrolidin-2-yl]methyl]-6-methyl-4-[8-(trifluoromethyl)-5-quinolyl]morpholine-2-carboxamide]
18 | 480 (≈ 1050 µM) | 86 | C[C@@H]1CN(c2ccc(C(F)(F)F)c3ncccc23)C[C@H](C(=O)NC2CNCC(F)(F)C2)O1 (stereo partly drawn) [Example 28, (2R,6R)-N-(5,5-difluoro-3-piperidyl)-6-methyl-4-[8-(trifluoromethyl)-5-quinolyl]morpholine-2-carboxamide]
19 | 565 (≈ 1230 µM) | 14 | C[C@@H]1CN(c2ccc(C(F)(F)F)c3ncccc23)C[C@H](C(=O)NCC2CNCC2(F)F)O1 (stereo partly drawn) [Example 29, (2R,6R)-N-[(4,4-difluoropyrrolidin-3-yl)methyl]-6-methyl-4-[8-(trifluoromethyl)-5-quinolyl]morpholine-2-carboxamide]
20 | 375 (≈ 818 µM) | 130 | C[C@@H]1CN(c2ccc(C(F)(F)F)c3ncccc23)C[C@H](C(=O)NC[C@@H]2CC(F)(F)CN2)O1 [Example 30]
21 | > 597 | 9 | C[C@@H]1CN(c2ccc(C(F)(F)F)c3ncccc23)C[C@H](C(=O)NC2C3CCC2CNC3)O1 (stereo partly drawn) [Example 31, (2R,6R)-N-(3-azabicyclo[3.2.1]octan-8-yl)-6-methyl-4-[8-(trifluoromethyl)-5-quinolyl]morpholine-2-carboxamide]
